From US20230365576A1, “BRM Targeting Compounds And Associated Methods Of Use” (Prelude Therapeutics Incorporated, priority 2022, published 2023)

Key:
SMARCA2 = molecular target: T1, SMARCA2 (Homo sapiens, UniProt P51531); assay: SMARCA2 HiBiT degradation assay in HeLa cells; format: cell-based; conditions: 18 hours; for DC50: read-out: SMARCA2 IC50; for Dmax: HeLa
T1 construct: SMARCA2-HiBiT knock-in Hela monoclonal cell (CS302366); host or cells: HeLa (CRISPR HiBiT knock-in monoclonal line, heterozygous)
Summary of the method: (§1)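 Degradation measured as HiBiT luminescence (Nano-Glo lytic reagent) after 18 h compound exposure at 37° C. Cells were HeLa clones carrying heterozygous HiBiT tags on SMARCA2 or SMARCA4, 2500 per well; compounds at 3-fold serial dilution from 10 μM.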

SMARCA4 = molecular target: T2, SMARCA4 (Homo sapiens, UniProt P51532); assay: SMARCA4 HiBiT degradation assay in HeLa cells; format: cell-based; conditions: 18 hours; for Dmax: HeLa
T2 construct: SMARCA4-HiBiT knock-in Hela monoclonal cell (CS3023226) were purchased from Promega; host or cells: HeLa (CRISPR HiBiT knock-in monoclonal line, heterozygous)
Summary of the method: as §1

T1 sequence (P51531 whole entry): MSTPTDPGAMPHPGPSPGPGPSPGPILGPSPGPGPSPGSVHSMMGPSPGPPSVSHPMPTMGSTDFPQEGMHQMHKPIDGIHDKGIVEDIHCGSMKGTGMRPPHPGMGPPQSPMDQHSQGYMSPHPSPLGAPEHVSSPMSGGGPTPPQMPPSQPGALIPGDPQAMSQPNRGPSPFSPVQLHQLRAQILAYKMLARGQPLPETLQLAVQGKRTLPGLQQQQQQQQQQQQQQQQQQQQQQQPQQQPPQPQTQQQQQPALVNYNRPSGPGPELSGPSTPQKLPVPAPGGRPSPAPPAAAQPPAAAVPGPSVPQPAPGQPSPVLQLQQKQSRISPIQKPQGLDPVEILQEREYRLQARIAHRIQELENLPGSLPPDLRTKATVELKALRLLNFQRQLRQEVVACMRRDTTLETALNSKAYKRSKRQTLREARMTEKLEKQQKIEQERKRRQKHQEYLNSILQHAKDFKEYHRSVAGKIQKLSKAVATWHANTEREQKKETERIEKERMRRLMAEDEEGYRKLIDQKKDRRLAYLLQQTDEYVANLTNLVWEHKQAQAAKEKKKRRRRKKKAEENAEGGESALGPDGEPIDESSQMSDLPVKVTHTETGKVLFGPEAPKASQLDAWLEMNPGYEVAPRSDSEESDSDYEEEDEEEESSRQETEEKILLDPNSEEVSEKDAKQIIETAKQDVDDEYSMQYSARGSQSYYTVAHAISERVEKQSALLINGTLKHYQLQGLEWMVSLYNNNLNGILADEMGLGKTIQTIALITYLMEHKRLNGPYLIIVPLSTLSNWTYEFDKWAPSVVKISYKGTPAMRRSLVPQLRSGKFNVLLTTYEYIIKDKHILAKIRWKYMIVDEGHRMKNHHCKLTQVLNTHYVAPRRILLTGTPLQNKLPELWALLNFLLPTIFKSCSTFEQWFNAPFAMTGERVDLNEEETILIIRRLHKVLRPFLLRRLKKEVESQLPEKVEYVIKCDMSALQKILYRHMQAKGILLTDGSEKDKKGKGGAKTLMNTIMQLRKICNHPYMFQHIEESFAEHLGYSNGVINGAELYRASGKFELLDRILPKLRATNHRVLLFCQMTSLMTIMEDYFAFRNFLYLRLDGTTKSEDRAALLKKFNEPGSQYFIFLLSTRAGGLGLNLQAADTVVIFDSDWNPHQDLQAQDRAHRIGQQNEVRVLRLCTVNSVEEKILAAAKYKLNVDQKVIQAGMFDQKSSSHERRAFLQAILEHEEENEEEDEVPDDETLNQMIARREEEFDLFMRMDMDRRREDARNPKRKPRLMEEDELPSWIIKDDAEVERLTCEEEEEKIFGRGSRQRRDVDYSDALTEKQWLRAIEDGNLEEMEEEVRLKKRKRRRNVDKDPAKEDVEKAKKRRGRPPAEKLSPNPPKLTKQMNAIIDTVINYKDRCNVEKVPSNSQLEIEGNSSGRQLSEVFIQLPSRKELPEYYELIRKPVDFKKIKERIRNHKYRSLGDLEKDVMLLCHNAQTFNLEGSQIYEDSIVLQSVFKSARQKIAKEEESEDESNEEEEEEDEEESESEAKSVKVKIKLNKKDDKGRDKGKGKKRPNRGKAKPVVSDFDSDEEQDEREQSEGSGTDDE
T2 sequence (P51532 whole entry): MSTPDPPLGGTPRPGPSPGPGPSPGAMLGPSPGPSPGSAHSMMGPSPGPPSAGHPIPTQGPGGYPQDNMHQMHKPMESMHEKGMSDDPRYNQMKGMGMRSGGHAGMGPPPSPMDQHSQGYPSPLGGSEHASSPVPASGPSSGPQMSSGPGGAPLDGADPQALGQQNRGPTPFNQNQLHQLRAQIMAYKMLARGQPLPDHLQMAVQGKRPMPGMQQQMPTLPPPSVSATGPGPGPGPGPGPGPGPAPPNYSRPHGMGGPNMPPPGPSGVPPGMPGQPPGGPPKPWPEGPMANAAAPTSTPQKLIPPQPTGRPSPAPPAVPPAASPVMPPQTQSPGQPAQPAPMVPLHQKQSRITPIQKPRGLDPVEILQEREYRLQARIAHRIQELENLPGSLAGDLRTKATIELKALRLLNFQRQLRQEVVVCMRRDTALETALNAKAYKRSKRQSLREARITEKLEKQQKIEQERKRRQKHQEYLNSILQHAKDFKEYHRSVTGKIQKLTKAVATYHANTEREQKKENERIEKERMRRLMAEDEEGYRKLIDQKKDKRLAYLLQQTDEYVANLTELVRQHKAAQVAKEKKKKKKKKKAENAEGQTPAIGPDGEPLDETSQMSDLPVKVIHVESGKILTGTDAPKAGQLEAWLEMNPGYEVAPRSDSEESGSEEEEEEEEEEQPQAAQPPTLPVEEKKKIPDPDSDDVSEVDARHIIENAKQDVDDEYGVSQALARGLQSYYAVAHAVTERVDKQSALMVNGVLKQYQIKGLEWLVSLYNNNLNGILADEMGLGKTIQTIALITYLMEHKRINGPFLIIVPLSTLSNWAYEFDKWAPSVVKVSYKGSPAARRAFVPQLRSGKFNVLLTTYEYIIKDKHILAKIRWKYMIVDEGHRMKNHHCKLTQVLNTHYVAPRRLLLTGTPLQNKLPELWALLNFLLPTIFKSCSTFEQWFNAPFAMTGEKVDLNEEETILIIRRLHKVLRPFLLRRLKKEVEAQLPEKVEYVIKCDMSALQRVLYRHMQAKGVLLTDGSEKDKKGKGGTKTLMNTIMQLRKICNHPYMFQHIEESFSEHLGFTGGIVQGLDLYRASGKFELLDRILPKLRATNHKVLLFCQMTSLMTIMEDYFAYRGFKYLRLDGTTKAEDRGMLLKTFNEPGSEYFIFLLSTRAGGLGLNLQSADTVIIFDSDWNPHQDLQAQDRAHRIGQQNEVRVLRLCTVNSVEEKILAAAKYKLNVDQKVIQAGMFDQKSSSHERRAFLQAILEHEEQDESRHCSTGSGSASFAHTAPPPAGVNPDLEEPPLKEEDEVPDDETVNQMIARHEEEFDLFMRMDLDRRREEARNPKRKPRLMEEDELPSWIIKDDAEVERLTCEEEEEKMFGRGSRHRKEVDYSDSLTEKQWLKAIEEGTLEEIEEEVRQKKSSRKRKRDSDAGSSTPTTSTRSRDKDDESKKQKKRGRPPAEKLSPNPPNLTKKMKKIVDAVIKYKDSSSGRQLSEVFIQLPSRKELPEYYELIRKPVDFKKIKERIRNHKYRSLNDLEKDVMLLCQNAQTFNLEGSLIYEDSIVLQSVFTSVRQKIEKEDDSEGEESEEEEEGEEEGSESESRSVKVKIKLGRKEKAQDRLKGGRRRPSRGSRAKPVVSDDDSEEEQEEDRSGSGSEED

| DC50 (SMARCA2) [nM] | Dmax (SMARCA2) [%] | DC50 (SMARCA4) [nM] | Dmax (SMARCA4) [%] | SMARCA2 DMax % (SMARCA2) | SMARCA4 DMax % (SMARCA4) | Dmax (SMARCA4; given as a number) [%] | SMILES |
| --- | --- | --- | --- | --- | --- | --- | --- |
| < 100 | > 75 | < 100 | < 50 | – | – | – | C[C@@H]1CN(C[C@H]2CCN(c3ccc4c(c3)C(=O)N(C3CCC(=O)NC3=O)C4)C[C@@H]2F)C[C@H](C)N1C(=O)N1CCN2c3cc(-c4cc(F)cc(F)c4O)nnc3NC[C@H]2C1 (mixture of isomers) [Example 42, 3-(6-((rac-3R,4R)-4-(((3S,5R)-4-((S)-2-(3,5-difluoro-2-hydroxyphenyl)-6,6a,7,8,9,10-hexahydro-5H-pyrazino[1′,2′:4,5]pyrazino[2,3-c]pyridazine-8-carbonyl)-3,5-dimethylpiperazin-1-yl)methyl)-3-fluoropiperidin-1-yl)-1-oxoisoindolin-2-yl)piperidine-2,6-dione] |
| < 100 | > 75 | < 100 | < 50 | – | – | – | C[C@@H]1CN(C[C@H]2CN(c3ccc4c(c3)CN(C3CCC(=O)NC3=O)C4=O)CCO2)C[C@H](C)N1C(=O)N1CCN2c3cc(-c4cc(F)cc(F)c4O)nnc3NC[C@H]2C1 (stereo partly drawn) [Example 21, 3-(5-((S)-2-(((3R,5S)-4-((S)-2-(3,5-difluoro-2-hydroxyphenyl)-6,6a,7,8,9,10-hexahydro-5H-pyrazino[1′,2′:4,5]pyrazino[2,3-c]pyridazine-8-carbonyl)-3,5-dimethylpiperazin-1-yl)methyl)morpholino)-1-oxoisoindolin-2-yl)piperidine-2,6-dione] |
| < 100 | – | < 100 | – | – | – | – | CCC12CNc3nnc(-c4cc(F)cc(F)c4O)cc3N1CCN(C(=O)N1[C@H](C)CN(CC3CCN(c4ccc5c(c4)C(=O)N(C4CCC(=O)NC4=O)C5)CC3)C[C@@H]1C)C2 (single isomer, unassigned) [Example 85] |
| < 100 | – | < 100 | – | A (A=Dmax>75%) | A (A=Dmax>75%) | – | CCC12CNc3nnc(-c4cccc(F)c4O)cc3N1CCN(C(=O)C1(F)CCN(CC3CCN(c4ccc5c(c4)C(=O)N([C@H]4CCC(=O)NC4=O)C5)CC3)CC1)C2 (single isomer, unassigned) [Example 108] |
| < 100 | > 75 | < 100 | > 75 | – | – | – | C[C@@H]1CN(CC2CCN(c3ccc4c(c3)C(=O)N(C3CCC(=O)NC3=O)C4)CC2)C[C@H](C)N1C(=O)N1CCN2c3cc(-c4cc(F)cc(F)c4O)nnc3NCC2(C)C1 (stereo partly drawn) [Example 26, 3-(6-(4-(((3S,5R)-4-(2-(3,5-difluoro-2-hydroxyphenyl)-6a-methyl-6,6a,7,8,9,10-hexahydro-5H-pyrazino[1′,2′:4,5]pyrazino[2,3-c]pyridazine-8-carbonyl)-3,5-dimethylpiperazin-1-yl)methyl)piperidin-1-yl)-1-oxoisoindolin-2-yl)piperidine-2,6-dione] |
| < 100 | > 75 | < 100 | 50 to 75 | – | – | – | O=C1CCC(N2Cc3cc(N4CC[C@@H](CN5CCC(CN6CCN7c8cc(-c9cc(F)cc(F)c9O)nnc8NC[C@H]7C6)CC5)C4)ccc3C2=O)C(=O)N1 (stereo partly drawn) [Example 53, 3-(5-((S)-3-((4-(((S)-2-(3,5-difluoro-2-hydroxyphenyl)-5,6,6a,7,9,10-hexahydro-8H-pyrazino[1′,2′:4,5]pyrazino[2,3-c]pyridazin-8-yl)methyl)piperidin-1-yl)methyl)pyrrolidin-1-yl)-1-oxoisoindolin-2-yl)piperidine-2,6-dione] |
| < 100 | > 75 | < 100 | – | – | – | 51 | CC1(C)CN(CC2CCN(c3ccc4c(c3)C(=O)N([C@H]3CCC(=O)NC3=O)C4)CC2)CCN1C(=O)N1CCN2c3cc(-c4cc(F)cc(F)c4O)nnc3NC[C@H]2C1 [Example 19, (S)-3-(6-(4-((4-((S)-2-(3,5-difluoro-2-hydroxyphenyl)-6,6a,7,8,9,10-hexahydro-5H-pyrazino[1′,2′:4,5]pyrazino[2,3-c]pyridazine-8-carbonyl)-3,3-dimethylpiperazin-1-yl)methyl)piperidin-1-yl)-1-oxoisoindolin-2-yl)piperidine-2,6-dione] |
| < 100 | > 75 | < 100 | – | – | A (A=Dmax>75%) | – | CCC12CNc3nnc(-c4cccc(F)c4O)cc3N1CCN(C(=O)N1[C@H](C)CN(CC3CCN(c4ccc5c(c4)C(=O)N(C4CCC(=O)NC4=O)C5)CC3)C[C@H]1C)C2 (single isomer, unassigned) [Example 82] |
| < 100 | > 75 | < 100 | < 50 | – | – | – | CC1(C)CN(CC2CN(c3ccc4c(c3)C(=O)N(C3CCC(=O)NC3=O)C4)C2)CCN1C(=O)N1CCN2c3cc(-c4cc(F)cc(F)c4O)nnc3NC[C@H]2C1 (stereo partly drawn) [Example 23, 3-(6-(3-((4-((S)-2-(3,5-difluoro-2-hydroxyphenyl)-6,6a,7,8,9,10-hexahydro-5H-pyrazino[1′,2′:4,5]pyrazino[2,3-c]pyridazine-8-carbonyl)-3,3-dimethylpiperazin-1-yl)methyl)azetidin-1-yl)-1-oxoisoindolin-2-yl)piperidine-2,6-dione] |
| < 100 | > 75 | < 100 | < 50 | – | – | – | C[C@@H]1CN(CC2CN(c3ccc4c(c3)C(=O)N(C3CCC(=O)NC3=O)C4)C2)C[C@H](C)N1C(=O)N1CCN2c3cc(-c4cc(F)cc(F)c4O)nnc3NC[C@H]2C1 (stereo partly drawn) [Example 20, 3-(6-(3-(((3R,5S)-4-((S)-2-(3,5-difluoro-2-hydroxyphenyl)-6,6a,7,8,9,10-hexahydro-5H-pyrazino[1′,2′:4,5]pyrazino[2,3-c]pyridazine-8-carbonyl)-3,5-dimethylpiperazin-1-yl)methyl)azetidin-1-yl)-1-oxoisoindolin-2-yl)piperidine-2,6-dione] |
| < 100 | > 75 | 100 to 1000 | < 50 | – | – | – | CC1(C)CN(CC2CCN(c3ccc4c(c3)C(=O)N(C3CCC(=O)NC3=O)C4)CC2)CCC1C(=O)N1CCN2c3cc(-c4cc(F)cc(F)c4O)nnc3NC[C@H]2C1 (stereo partly drawn) [Example 119, 3-(6-(4-((4-((S)-2-(3,5-difluoro-2-hydroxyphenyl)-6,6a,7,8,9,10-hexahydro-5H-pyrazino[1′,2′:4,5]pyrazino[2,3-c]pyridazine-8-carbonyl)-3,3-dimethylpiperidin-1-yl)methyl)piperidin-1-yl)-1-oxoisoindolin-2-yl)piperidine-2,6-dione] |
| < 100 | > 75 | < 100 | 50 to 75 | – | – | – | C[C@@H]1CN(CC2CCN(c3ccc4c(c3)C(=O)N([C@H]3CCC(=O)NC3=O)C4)CC2)[C@@H](C)CN1C(=O)N1CCN2c3cc(-c4cccc(F)c4O)nnc3NC[C@]2(C(F)F)C1 [Example 68, (S)-3-(6-(4-(((2S,5R)-4-((R)-6a-(difluoromethyl)-2-(3-fluoro-2-hydroxyphenyl)-6,6a,7,8,9,10-hexahydro-5H-pyrazino[1′,2′:4,5]pyrazino[2,3-c]pyridazine-8-carbonyl)-2,5-dimethylpiperazin-1-yl)methyl)piperidin-1-yl)-1-oxoisoindolin-2-yl)piperidine-2,6-dione] |
| < 100 | – | > 1000 | – | A (A=Dmax>75%) | C (C=Dmax<50%) | – | CC1(C)CN(CC2CCN(c3ccc4c(c3)C(=O)N([C@H]3CCC(=O)NC3=O)C4)CC2)CCN1C(=O)N1CCN2c3cc(-c4cccc(F)c4O)nnc3NCC2(CF)C1 (single isomer, unassigned) [Example 90] |
| < 100 | > 75 | < 100 | < 50 | – | – | – | C[C@@H]1CN(CC2CCN(c3ccc4c(c3)C(=O)N(C3CCC(=O)NC3=O)C4)CC2)C[C@@H](C)N1C(=O)N1CCN2c3cc(-c4cc(F)cc(F)c4O)nnc3NC[C@H]2C1 (stereo partly drawn) [Example 45, 3-(6-(4-(((3R,5R)-4-((S)-2-(3,5-difluoro-2-hydroxyphenyl)-6,6a,7,8,9,10-hexahydro-5H-pyrazino[1′,2′:4,5]pyrazino[2,3-c]pyridazine-8-carbonyl)-3,5-dimethylpiperazin-1-yl)methyl)piperidin-1-yl)-1-oxoisoindolin-2-yl)piperidine-2,6-dione] |
| < 100 | > 75 | < 100 | 50 to 75 | – | – | – | O=C1CC[C@H](N2Cc3ccc(N4CCN(C[C@H]5CC[C@H](CN6CCN7c8cc(-c9cccc(F)c9O)nnc8NC[C@H]7C6)CC5)CC4)cc3C2=O)C(=O)N1 [Example 114, (S)-3-(6-(4-(((1S,4S)-4-(((S)-2-(3-fluoro-2-hydroxyphenyl)-5,6,6a,7,9,10-hexahydro-8H-pyrazino[1′,2′:4,5]pyrazino[2,3-c]pyridazin-8-yl)methyl)cyclohexyl)methyl)piperazin-1-yl)-1-oxoisoindolin-2-yl)piperidine-2,6-dione] |
| < 100 | > 75 | < 100 | < 50 | – | – | – | C[C@H]1CN2c3cc(-c4cccc(F)c4O)nnc3NC[C@H]2CN1C(=O)N1CCN(CC2CCN(c3ccc4c(c3)C(=O)N(C3CCC(=O)NC3=O)C4)CC2)CC1(C)C (stereo partly drawn) [Example 4, 3-(6-(4-((4-((6aS,9S)-2-(3-fluoro-2-hydroxyphenyl)-9-methyl-6,6a,7,8,9,10-hexahydro-5H-pyrazino[1′,2′:4,5]pyrazino[2,3-c]pyridazine-8-carbonyl)-3,3-dimethylpiperazin-1-yl)methyl)piperidin-1-yl)-1-oxoisoindolin-2-yl)piperidine-2,6-dione] |
| < 100 | 50 to 75 | > 1000 | < 50 | – | – | – | CC12CNc3nnc(-c4cccc(F)c4O)cc3N1CCN(C(=O)C1(F)CCN(CC3CCN(c4ccc5c(c4)C(=O)N([C@H]4CCC(=O)NC4=O)C5)CC3)CC1)C2 (single isomer, unassigned) [Example 111] |
| < 100 | – | < 100 | – | – | – | – | C[C@@H]1CN(CC2CCN(c3ccc4c(c3)C(=O)N(C3CCC(=O)NC3=O)C4)CC2)C[C@@H](C)N1C(=O)N1CCN2c3cc(-c4cccc(Cl)c4O)nnc3NCC2(C)C1 (single isomer, unassigned) [Example 63] |
